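Where inhibition never reached the appropriate level, the endpoint shown equals the highest concentration tested. Otherwise, values were interpolated linearly from a five-concentration, 48-hour dose response in 96-well plates. The concentration for 50% growth inhibition is given as GI50. The concentration for full growth arrest is given as TGI.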
How the values were obtained:
Assay in all cases: NCI-60 cell line screen, 48 h
786-0 renal = tested on: 786-0 renal
A498 renal = tested on: A498 renal
A549 NSCLC = tested on: A549 NSCLC
ACHN renal = tested on: ACHN renal
BT-549 breast = tested on: BT-549 breast
CAKI-1 renal = tested on: CAKI-1 renal
CCRF-CEM leukemia = tested on: CCRF-CEM leukemia
COLO 205 colon = tested on: COLO 205 colon
DU-145 prostate = tested on: DU-145 prostate
EKVX NSCLC = tested on: EKVX NSCLC
HCC-2998 colon = tested on: HCC-2998 colon
HCT-116 colon = tested on: HCT-116 colon
HCT-15 colon = tested on: HCT-15 colon
HL-60(TB) leukemia = tested on: HL-60(TB) leukemia
HOP-62 NSCLC = tested on: HOP-62 NSCLC
HOP-92 NSCLC = tested on: HOP-92 NSCLC
HS 578T breast = tested on: HS 578T breast
HT29 colon = tested on: HT29 colon
IGROV1 ovarian = tested on: IGROV1 ovarian
K-562 leukemia = tested on: K-562 leukemia
KM12 colon = tested on: KM12 colon
LOX IMVI melanoma = tested on: LOX IMVI melanoma
M14 melanoma = tested on: M14 melanoma
MALME-3M melanoma = tested on: MALME-3M melanoma
MCF7 breast = tested on: MCF7 breast
MDA-MB-231 breast = tested on: MDA-MB-231 breast
MDA-MB-435 = tested on: MDA-MB-435
MOLT-4 leukemia = tested on: MOLT-4 leukemia
NCI-H226 lung = tested on: NCI-H226 lung

With `CCNC(=O)N1CCc2cc(OC)c(OCCc3ccc(OC)nc3)cc2C1c1ccc(C)cc1C` (configuration not stated) the GI50 (786-0 renal) was 0.687 µM, the TGI (786-0 renal) was greater than 100 µM and the GI50 (A498 renal) was 1.39 µM. It also gave a TGI (A498 renal) of 14.3 µM, a GI50 (A549 NSCLC) of 0.984 µM and a TGI (A549 NSCLC) greater than 100 µM. For the same molecule, the GI50 (ACHN renal) was 0.662 µM, the TGI (ACHN renal) was 91.1 µM and the GI50 (BT-549 breast) was 1.55 µM. It also gave a TGI (BT-549 breast) of 7.45 µM, a GI50 (CAKI-1 renal) of 0.611 µM and a TGI (CAKI-1 renal) greater than 100 µM. The GI50 (CCRF-CEM leukemia) was 0.519 µM, the TGI (CCRF-CEM leukemia) was 55 µM and the GI50 (COLO 205 colon) was 0.792 µM. The TGI (COLO 205 colon) was 4.17 µM, the GI50 (DU-145 prostate) was 0.858 µM and the TGI (DU-145 prostate) was 24 µM. The GI50 (EKVX NSCLC) was 4.03 µM, the TGI (EKVX NSCLC) was greater than 100 µM and the GI50 (HCC-2998 colon) was 1.56 µM. It also gave a TGI (HCC-2998 colon) of 17.8 µM, a GI50 (HCT-116 colon) of 0.299 µM and a TGI (HCT-116 colon) of 20.7 µM. The GI50 (HCT-15 colon) was 0.156 µM, the TGI (HCT-15 colon) was greater than 60.2 µM and the GI50 (HL-60(TB) leukemia) was 0.651 µM. The TGI (HL-60(TB) leukemia) was 3.82 µM, the GI50 (HOP-62 NSCLC) was 1.35 µM and the TGI (HOP-62 NSCLC) was greater than 37.5 µM. It also gave a GI50 (HOP-92 NSCLC) of 4.52 µM, a TGI (HOP-92 NSCLC) of 27.4 µM and a GI50 (HS 578T breast) of 1.53 µM. It also gave a TGI (HS 578T breast) of 10.6 µM, a GI50 (HT29 colon) of 0.573 µM and a TGI (HT29 colon) of 10.5 µM. For the same molecule, the GI50 (IGROV1 ovarian) was 0.743 µM, the TGI (IGROV1 ovarian) was greater than 100 µM and the GI50 (K-562 leukemia) was 0.259 µM. It also gave a TGI (K-562 leukemia) greater than 100 µM, a GI50 (KM12 colon) of 0.634 µM and a TGI (KM12 colon) greater than 40.4 µM. For the same molecule, the GI50 (LOX IMVI melanoma) was 0.308 µM, the TGI (LOX IMVI melanoma) was 5.41 µM and the GI50 (M14 melanoma) was 0.722 µM. It also gave a TGI (M14 melanoma) of 19.3 µM, a GI50 (MALME-3M melanoma) of 1.35 µM and a TGI (MALME-3M melanoma) of 50.2 µM. For the same molecule, the GI50 (MCF7 breast) was 0.443 µM, the TGI (MCF7 breast) was greater than 100 µM and the GI50 (MDA-MB-231 breast) was 1.14 µM. It also gave a TGI (MDA-MB-231 breast) of 30.2 µM, a GI50 (MDA-MB-435) of 0.37 µM and a TGI (MDA-MB-435) of 5.89 µM. For the same molecule, the GI50 (MOLT-4 leukemia) was 0.416 µM, the TGI (MOLT-4 leukemia) was 35.5 µM and the GI50 (NCI-H226 lung) was 1.73 µM.
